pIC50: −log10 of the molar value.
Columns and labels:
human CRTH2 [1] = target: T1, human CRTH2 (Homo sapiens, UniProt Q9Y5Y4); test: Human CRTH2 Receptor Binding Assay (whole cell, [3H]ramatroban); design: expressed in transfected cells; host or cells: CHO-K1; details: CHO-K1 cells expressing human CRTH2 and G-alpha16; 20 nM [3H]ramatroban; 1 hour, room temperature
T1 sequence (Q9Y5Y4 1-395): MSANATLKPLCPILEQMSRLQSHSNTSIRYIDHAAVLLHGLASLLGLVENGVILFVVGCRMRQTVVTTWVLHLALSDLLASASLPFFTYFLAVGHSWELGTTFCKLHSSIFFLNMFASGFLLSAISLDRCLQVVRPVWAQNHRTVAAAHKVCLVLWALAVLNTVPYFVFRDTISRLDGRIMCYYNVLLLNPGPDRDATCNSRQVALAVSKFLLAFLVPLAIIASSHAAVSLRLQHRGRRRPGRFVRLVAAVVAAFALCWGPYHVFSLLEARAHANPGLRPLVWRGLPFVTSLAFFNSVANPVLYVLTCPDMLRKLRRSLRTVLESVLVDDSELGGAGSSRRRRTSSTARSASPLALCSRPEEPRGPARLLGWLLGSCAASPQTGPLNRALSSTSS
Outline: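 CHO-K1 cells stably co-expressing human CRTH2 and G-alpha16, 1.5×10^5 cells/reaction, bound 1 h at room temperature with 20 nM [3H]ramatroban in PBS, 10 mM MgCl2, 0.06% BSA. Filter-bound radioactivity counted; non-specific binding defined with 10 μM 15(R)-15-methyl PGD2. IC50 from 4-parameter fit of 7-concentration inhibition data.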

human CRTH2 [2] = target: T1, human CRTH2; test: Calcium Flux Assay Using Fluorometric Imaging Plate Reader (FLIPR); format: cell-based; design: expressed in transfected cells; host or cells: CHO-K1 (previously transfected with G-alpha 16); details: CHO-K1 cells with G-alpha 16 and human CRTH2; inhibition of ligand (DK-PGD2) induced Ca2+ flux; read-out: FLIPR assay IC50 (exceptions, greater than 3)
Protocol: CHO-K1 cells previously transfected with G-alpha 16 were subsequently transfected with the human CRTH2 receptor and the neomycin resistance gene. Following selection in 800 μg/mL G418 (geneticin), individual clones were assayed for their receptor expression based on staining with an anti human CRTH2 IgG, followed by assaying for their response to 13,14-dihydro-15-keto Prostaglandin D2 (DK-PDG2) (ligand) in the Ca^2+Flux assay. Positive clones were then cloned by limiting dilution cloning. The transfected cells were cultured in Ham's F-12 medium supplemented with 10% fetal bovine serum, 2 mM glutamine , 100 U/mL penicillin/100 μg/mL streptomycin, 200 μg/mL hygromycin B, and 800 μg/mL G418 (geneticin). Cells were harvested with trypsin-EDTA (trypsin-ethylenediaminetetraacetic acid) and counted using ViaCount® reagent (from Guava Technologies, Inc. which contains two DNA-binding dyes that enable the reagent user to distinguish between viable and non-viable cells). The cell suspension volume was adjusted to 2.5×10^5 cells /mL with complete growth media. Aliquots of 50 μL were dispensed into BD Falcon™ 384 well black/clear microplates (from BD Biosciences, a division of Becton, Dickinson and Company) and the microplates were placed in a 37° C. CO2 incubator overnight. The following day, the microplates were used in the assay.
Loading Buffer containing dye (from the FLIPR® Calcium 3 Assay Kit from Molecular Devices, a division of MDS Analytical Technologies and MDS Inc.) was prepared by dissolving the contents of one bottle into 200 mL Hank's Balanced Salt Solution containing 20 mM HEPES (4-(2-hydroxyethyl)-1-piperazineethanesulfonic acid) and 2.5 mM probenecid. Growth media was removed from the cell plates and 25 μL of Hank's Balanced Salt Solution (HBSS) containing 20 mM HEPES, 0.05% BSA and 2.5 mM probenecid was added to each well followed by 25 μL of diluted dye using a Multidrop dispenser. The plates were then incubated for 1 hour at 37° C.
During the incubation, test compound plates were prepared by adding 90 μL of HBSS/20 mM HEPES/0.005% BSA buffer to the 2 μL of serial diluted compounds. To prepare serial diluted compounds, 20 mM stocks of compounds were dissolved in 100% DMSO. The compound dilution plate was set up as follows: well #1 received 5 μL of compound plus 10 μL of DMSO. Wells 2-10 received 10 μL of DMSO. 5 μL was mixed and transferred from well #1 into well #2. 1:3 serial dilutions were continued out 10 steps. 2 μL of diluted compound was transferred into duplicate wells of a 384 well “assay plate” and then 90 μL of buffer was added.
After incubation, both the cell and “assay plate” plates were brought to the fluorometric imaging plate reader (FLIPR®) and 20 μL of the diluted compounds were transferred to the cell plates by the FLIPR®. Plates were then incubated for 1 hour at room temperature. After the 1 hour incubation, plates were returned to the FLIPR® and 20 μL of 4.5× concentrated ligand was added to the cell plates. During the assay, fluorescence readings were taken simultaneously from all 384 wells of the cell plate every 1.5 seconds. Five readings were taken to establish a stable baseline, then 20 μL of sample was rapidly (30 μL/sec) and simultaneously added to each well of the cell plate. The fluorescence was continuously monitored before, during and after sample addition for a total elapsed time of 100 seconds. Responses (increase in peak fluorescence) in each well following agonist addition were determined. The initial fluorescence reading from each well, prior to ligand stimulation, was used as a zero baseline value for the data from that well. The responses were expressed as % inhibition of the buffer control. […]

[3] = system: DK-PGD2-induced IL-13 production in Th2 cells; test: DK-PGD2-Induced IL-13 Production Assay in Th2 Cells; format: cell-based; details: human Th2 cells; 500 nM DK-PGD2; 4 hrs at 37° C.; IL-13 by ELISA; read-out: IC50 for inhibition of IL-13 production
Protocol: Inhibition of 13,14-dihydro-15-keto Prostaglandin D2 (DK-PGD2)-induced IL-13 production in T helper type 2 (Th2) cells was applied to evaluate compound cellular potency.
Cultures of Th2 cells were established from blood of healthy human volunteers according to the following procedure. Peripheral blood mononuclear cells (PBMC) were first isolated from 50 mL of fresh blood by Ficoll-Hypaque density gradient centrifugation, followed by CD4^+cell purification using a CD4^+T Cell Isolation Kit II (from Miltenyi Biotec Inc.). The CD4^+T cells were then differentiated to Th2 cells by culturing the cells in X-VIVO 15® medium (from Cambrex BioScience Walkersville Inc.) containing 10% human AB serum (serum of blood type AB from Invitrogen Corporation), 50 U/mL of recombinant human interleukin-2 (rhIL-2) (from PeproTech Inc.) and 100 ng/mL of recombinant human interleukin-4 (rhIL-4) (from PeproTech Inc.) for 7 days. The Th2 cells were isolated using a CD294 (CRTH2) MicroBead Kit (from Miltenyi Biotec Inc.) and amplified in X-VIVO 15® medium containing 10% human AB serum and 50 U/mL of rhIL-2 for 2 to 5 weeks. In general, 70% to 80% of the Th2 cells used in the assay are CRTH2-positive when analyzed by fluorescence-activated cell sorting using the BM16 antibody (as previously described) conjugated to phycoerythrin (PE).
The spontaneous production of IL-13 by Th2 cells was determined in the absence of DK-PGD2 stimulation and the value was subtracted from that in the presence of each compound for percent inhibition and IC50 calculations.
The percent inhibition of interleukin 13 (IL-13) production for a compound at various concentrations was calculated according to the following formula, [1-(IL-13 production in the presence of compound)/(IL-13 production in the presence of 0.15% DMSO)]×100. […]

Row | Structure (SMILES) | pIC50 (human CRTH2 [1]) | pIC50 (human CRTH2 [2]) | pIC50 [3] | melting point [°C]
1 | NS(=O)(=O)c1ccc(C(=O)c2cc(CC(=O)O)cc3ccc(F)cc23)cc1 [Example 1-2, [6-Fluoro-4-(4-sulfamoyl-benzoyl)-naphthalen-2-yl]-acetic acid] | 7.40 | < 5.52 |  | 
2 | NS(=O)(=O)c1ccc(C(=O)c2cc(CC(=O)O)cc3ccccc23)cc1 [Example 1-3, [4-(4-Sulfamoyl-benzoyl)-naphthalen-2-yl]-acetic acid] | 6.47 | < 5.52 |  | 
3 | CS(=O)(=O)c1ccc(C(=O)c2cc(CC(=O)O)cc3cc4c(cc23)OCO4)cc1 [Example 2-7, [8-(4-Methanesulfonyl-benzoyl)-naphtho[2,3-d][1,3]dioxol-6-yl]-acetic acid] | 6.58 | < 5.52 |  | 
4 | COc1ccc2c(C(=O)c3ccc(S(C)(=O)=O)cc3)cc(CC(=O)O)cc2c1 [Example 2-9, [4-(4-Methanesulfonyl-benzoyl)-7-methoxy-naphthalen-2-yl]-acetic acid] | 6.70 | < 5.52 |  | 
5 | CS(=O)(=O)c1cccc(C(=O)c2cc(CC(=O)O)cc3ccccc23)c1 [Example 2-11, [4-(3-Methanesulfonyl-benzoyl)-naphthalen-2-yl]-acetic acid] | 6.87 | < 5.52 |  | 
6 | CS(=O)(=O)c1cccc(C(=O)c2cc(CC(=O)O)cc3cc4c(cc23)OCO4)c1 [Example 2-12, [8-(3-Methanesulfonyl-benzoyl)-naphtho[2,3-d][1,3]dioxol-6-yl]-acetic acid] | 6.82 | < 5.52 |  | 
7 | CS(=O)(=O)c1ccc(C(=O)c2cc(CC(=O)O)cc3ccc(C(F)(F)F)cc23)cc1 [Example 2-29, [4-(4-Methanesulfonyl-benzoyl)-6-trifluoromethyl-naphthalen-2-yl]-acetic acid] | 8.12 |  | 5.52 | 
8 | CS(=O)(=O)c1cccc(C(=O)c2cc(CC(=O)O)cc3ccc(Cl)cc23)c1 [Example 2-30, [6-Chloro-4-(3-methanesulfonyl-benzoyl)-naphthalen-2-yl]-acetic acid] | 7.08 | < 5.52 |  | 
9 | CC(C(=O)O)c1cc(C(=O)c2ccc(S(C)(=O)=O)cc2)c2cc(F)ccc2c1 (centres unmarked) [Example 7-1, 2-[6-Fluoro-4-(4-methanesulfonyl-benzoyl)-naphthalen-2-yl]-propionic acid] | 7.27 | < 5.52 |  | 
10 | CS(=O)(=O)c1ccc(Cc2cc(CC(=O)O)cc3cc(C(F)(F)F)ccc23)cc1 [Example 8-3, [4-(4-Methanesulfonyl-benzyl)-7-trifluoromethyl-naphthalen-2-yl]-acetic acid] | 6.79 |  | < 5.00 | 
11 | Cc1c(CC(=O)O)cc2ccc(F)cc2c1Cc1ccc(S(=O)(=O)C(F)(F)F)cc1 [Example 11-1, [6-Fluoro-3-methyl-4-(4-trifluoromethanesulfonyl-benzyl)-naphthalen-2-yl]-acetic acid] | 8.52 |  |  | 200 to 201
12 | Cc1ccc2cc(CC(=O)O)cc(C(O)c3ccc(S(C)(=O)=O)cc3)c2c1 (centres unmarked) [Example 16-2, {4-[Hydroxy-(4-methanesulfonyl-phenyl)-methyl]-6-methyl-naphthalen-2-yl}-acetic acid] | 6.41 |  | 5.24 | 
13 | O=C(O)Cc1cc(C(O)c2ccc(S(=O)(=O)N3CCOCC3)cc2)c2cc(F)ccc2c1 (centres unmarked) [Example 19-2, (6-Fluoro-4-{hydroxy-[4-(morpholine-4-sulfonyl)-phenyl]-methyl}-naphthalen-2-yl)-acetic acid] | 8.02 |  |  | 
14 | CNS(=O)(=O)c1ccc(C(O)c2cc(CC(=O)O)cc3ccc(F)cc23)cc1 (centres unmarked) [Example 20-1, {6-Fluoro-4-[hydroxy-(4-methylsulfamoyl-phenyl)-methyl]-naphthalen-2-yl}-acetic acid] | 7.66 |  |  | 

Source: patent US8124629B2, “Naphthylacetic acids” (Hoffmann-La Roche Inc., priority 2008, dated 2012)
